Data from patent publication US10765751B2, “pH sensitive carrier and preparation method thereof, and pH sensitive drug and pH sensitive drug composition each containing the carrier, and method for treating or preventing diseases using the same” (TERUMO KABUSHIKI KAISHA, priority 2012, dated 2020).

Legend:
[1] = Leaching test: measurement of a leakage (leaching rate); assay type: biochemical; conditions: hydrophobic material alone, 37° C., 90 min, mean of three ± SD
Description: The leakage (leaching rate) was determined according to the method described by K. Kono et al., Bioconjugate Chem., 2008 19 1040-1048 and evaluated using an EYPC liposome including Pyranine serving as a fluorescent substance and DPX serving as a quencher.
3000 nmol of EYPC dissolved in chloroform was measured and placed in a 10 mL eggplant flask and converted to a thin film by use of a rotary evaporator (BuCHI). 500 μL of a Pyranine solution (Pyranine: 35 mM, DPX: 50 mM, MES: 25 mM, pH 7.4) was added, followed by dispersion with use of an ultrasonic irradiator (USC-J) and passage through a polycarbonate film having a pore size of 100 nm by use of an extruder to obtain a uniform particle size. Using an MES buffer (MES: 25 mM, NaCl: 125 mM, pH 7.4) and a G100 column, an outer water layer was substituted to obtain a dispersion of EYPC liposomes including the fluorescent substance. The concentration of the choline group of the phospholipid was determined by use of the phospholipid C test Wako and was adjusted by use of an MES buffer (MES: 25 mM, NaCl: 125 mM, pH 7.4) in such a way as to obtain 1.0 mmol/L of the phospholipid. […] The DOPE-Chems and DOPE-oleic acid were, respectively, measured in an acetic acid buffer (acetic acid: 25 mM, NaCl: 125 mM).
With respect to other samples, measurement at a pH of 4.0 to 3.0 was carried out by use of an acetic acid buffer.
It will be noted that the leakage was calculated in such a way that in case where the EYPC liposome dispersion alone was used, it was taken as 0% and a value obtained in case where 30 μL of a 10-fold diluted Triton-X100 was added was taken as 100%.
More particularly, the leakage was calculated according to the following equation. In the following equation, a measured fluorescence intensity is represented by L, a fluorescence intensity of a dispersion alone of EYPC liposomes including a fluorescent substance is represented by L0, and a fluorescence intensity in case where Triton-X100 was added is represented by L100. Leakage (%)=(L−L0)/(L100−L0)×100 Fusion Test: Measurement of Fusion (Membrane Fusion)

[2] = tested on: RAW cells; test: Evaluation of cytosolic delivery using a fluorescence-labeled peptide; assay type: cell-based; conditions: 14 μg of the fluorescence-labeled peptide/well, overnight, three hours post-incubation; FIG. 19, 20
Description: OVA-257-264-Rh was chosen as a model peptide. 140 μg/ml of a fluorescence-labeled peptide solution was prepared by use of PBS passed through a 0.22 μm filter and used for the preparation of a carrier. Cells used were RAW cells, and culture was carried out by use of an incubator (MCO20AIC) set at 5% CO2 and 37° C. The RAW cells were spread on a matsunami glass bottom dish on the day before the charge of the carrier and cultured in a 10% FBS-containing MEM medium.
After rinsing the cells with PBS, the medium was substituted with 1900 μL of a fresh 10% FBS-containing MEM medium, into which 100 μL of the respective samples was charged. Incubation was continued over 16 to 20 hours and the cells were rinsed at least three times with PBS. Thereafter, 2 mL of a fresh 10% FBS-containing MEM medium was added, following by three hours post-incubation. The cells were rinsed with PBS, followed by substitution with a DMEM-without-Phenol-Red medium and observation of the cells through a fluorescence microscope Axiovert 200M—soft: Axio vision 3.0—light source: Fluo Arc

## CC(=O)Oc1c(C)c(C)c2c(c1C)CCC(C)(CCC[C@H](C)CCC[C@H](C)CCCC(C)C)O2 (mixture of isomers) [α-Tocopherol acetate, DL-α-tocopherol acetate]
[1]; pH 5.0
  Hydrophobic material only Leakage (%): 7.0 ± 2.1%
[1]; pH 7.4
  Hydrophobic material only Leakage (%): 5.9 ± 0.2%

## Cc1c(C)c2c(c(C)c1O)CCC(C)(CCCC(C)CCCC(C)CCCC(C)C)O2 (racemic) [α-Tocopherol, DL-α-tocopherol]
[1]; pH 5.0
  Hydrophobic material only Leakage (%): 8.8 ± 0.6%
[1]; pH 7.4
  Hydrophobic material only Leakage (%): 5.4 ± 0.2%

## CCCCO [1-Butanol]
[1]; pH 5.0
  Hydrophobic material only Leakage (%): 11.1 ± 0.5%
[1]; pH 7.4
  Hydrophobic material only Leakage (%): 8.8 ± 0.1%

## CCCCCCCCCCCCO [1-Dodecanol]
[1]; pH 5.0
  Hydrophobic material only Leakage (%): 9.1 ± 0.8%
[1]; pH 7.4
  Hydrophobic material only Leakage (%): 7.9 ± 0.2%

## CCCCCCCCCCCCCCCCCCCCO [1-Eicosanol]
[1]; pH 5.0
  Hydrophobic material only Leakage (%): 8.6 ± 0.5%
[1]; pH 7.4
  Hydrophobic material only Leakage (%): 7.6 ± 0.4%

## CCCCCCCCCCCCCCCCO [1-Hexadodecanol, 1-Hexadecanol]
[1]; pH 5.0
  Hydrophobic material only Leakage (%): 11.0 ± 0.5%
[1]; pH 7.4
  Hydrophobic material only Leakage (%): 9.0 ± 0.9%

## CCCCCCCCO [1-Octanol]
[1]; pH 5.0
  Hydrophobic material only Leakage (%): 11.7 ± 0.1%
[1]; pH 7.4
  Hydrophobic material only Leakage (%): 9.0 ± 0.3%

## CCCCCCCCCCCCCCCC(=O)OC[C@H](O)[C@H]1OC(=O)C(O)=C1O [Ascorbyl palmitate]
[1]; pH 5.0
  Hydrophobic material only Leakage (%): 9.9 ± 1.0%
[1]; pH 7.4
  Hydrophobic material only Leakage (%): 1.7 ± 0.1%

## O=C(OCc1ccccc1)c1ccccc1 [Benzyl benzoate]
[1]; pH 5.0
  Hydrophobic material only Leakage (%): 9.7 ± 0.5%
[1]; pH 7.4
  Hydrophobic material only Leakage (%): 7.3 ± 2.0%

## CC(C)CCC[C@@H](C)[C@H]1CC[C@H]2[C@@H]3CC=C4C[C@@H](O)CC[C@]4(C)[C@H]3CC[C@]12C [Cholesterol, cholesterol]
[1]; pH 5.0
  Hydrophobic material only Leakage (%): 7.6 ± 0.5%
[1]; pH 7.4
  Hydrophobic material only Leakage (%): 4.8 ± 0.1%

## CCCCCCCCCCCC(=O)OCC [Ethyl laurate]
[1]; pH 5.0
  Hydrophobic material only Leakage (%): 11.9 ± 1.2%
[1]; pH 7.4
  Hydrophobic material only Leakage (%): 8.7 ± 0.9%

## CCCCCCCC/C=C\CCCCCCCC(=O)OCC [Ethyl oleate]
[1]; pH 5.0
  Hydrophobic material only Leakage (%): 11.2 ± 1.3%
[1]; pH 7.4
  Hydrophobic material only Leakage (%): 7.9 ± 0.2%

## CCCCCCCC/C=C\CCCCCCCC(=O)OCC(CO)OC(=O)CCCCCCC/C=C\CCCCCCCC (centres unmarked) [Glycerol dioleate]
[1]; pH 5.0
  Hydrophobic material only Leakage (%): 7.4 ± 0.6%
[1]; pH 7.4
  Hydrophobic material only Leakage (%): 7.2 ± 0.5%

## CCCCCCCCCCCCCCCCCC(=O)OCC(CO)OC(=O)CCCCCCCCCCCCCCCCC (centres unmarked) [Glycerol distearate]
[1]; pH 5.0
  Hydrophobic material only Leakage (%): 11.0 ± 1.4%
[1]; pH 7.4
  Hydrophobic material only Leakage (%): 8.0 ± 0.2%

## N[C@@H](Cc1c[nH]cn1)C(=O)O [L-Histidine, L-histidine]
[1]; pH 5.0
  Hydrophobic material only Leakage (%): 8.9 ± 0.5%
[1]; pH 7.4
  Hydrophobic material only Leakage (%): 6.7 ± 0.4%

## N[C@@H](Cc1ccccc1)C(=O)O [L-Phenylalanine]
[1]; pH 5.0
  Hydrophobic material only Leakage (%): 10.7 ± 0.4%
[1]; pH 7.4
  Hydrophobic material only Leakage (%): 7.9 ± 0.5%

## OC[C@H]1O[C@@H](O[C@H]2[C@H](O)[C@@H](O)C(O)O[C@@H]2CO)[C@H](O)[C@@H](O)[C@H]1O (some centres unmarked) [Lactose]
[1]; pH 5.0
  Hydrophobic material only Leakage (%): 8.9 ± 0.2%
[1]; pH 7.4
  Hydrophobic material only Leakage (%): 6.1 ± 0.2%

## CCCCCCCCCCCC(=O)O [Lauric acid]
[1]; pH 5.0
  Hydrophobic material only Leakage (%): 14.2 ± 0.4%
[1]; pH 7.4
  Hydrophobic material only Leakage (%): 6.2 ± 0.4%

## CCCCCCCCCC(=O)OCC(O)CO (centres unmarked) [Monocaprin, Glycerol monocaprate]
[1]; pH 5.0
  Hydrophobic material only Leakage (%): 8.1 ± 0.2%
[1]; pH 7.4
  Hydrophobic material only Leakage (%): 4.0 ± 2.6%

## CCCCCCCC(=O)OCC(O)CO (centres unmarked) [Monocaprylin, Glycerol monocaprylate]
[1]; pH 5.0
  Hydrophobic material only Leakage (%): 8.5 ± 0.4%
[1]; pH 7.4
  Hydrophobic material only Leakage (%): 4.9 ± 1.8%

## CCCCCCCCCCCC(=O)OCC(O)CO (centres unmarked) [Monolaurin, Glycerol monolaurate]
[1]; pH 5.0
  Hydrophobic material only Leakage (%): 5.6 ± 0.4%
[1]; pH 7.4
  Hydrophobic material only Leakage (%): 3.6 ± 0.3%

## CCCCCCCCCCCCCC(=O)OCC(O)CO (centres unmarked) [Monomyristin, Glycerol monomyristate]
[1]; pH 5.0
  Hydrophobic material only Leakage (%): 5.4 ± 0.1%
[1]; pH 7.4
  Hydrophobic material only Leakage (%): 3.8 ± 0.3%

## CCCCCCCC/C=C\CCCCCCCC(=O)OCC(O)CO (centres unmarked) [Monoolein, Glycerol monooleate]
[1]; pH 5.0
  Hydrophobic material only Leakage (%): 8.3 ± 0.4%
[1]; pH 7.4
  Hydrophobic material only Leakage (%): 6.3 ± 0.4%

## CCCCCCCCCCCCCCCC(=O)OCC(O)CO (centres unmarked) [Monopalmitin, Glycerol monopalmitate]
[1]; pH 5.0
  Hydrophobic material only Leakage (%): 8.1 ± 0.7%
[1]; pH 7.4
  Hydrophobic material only Leakage (%): 7.8 ± 2.5%

## CCCCCCCCCCCCCCCCCC(=O)OCC(O)CO (centres unmarked) [Monostearin, Glycerol monostearate]
[1]; pH 5.0
  Hydrophobic material only Leakage (%): 9.6 ± 0.6%
[1]; pH 7.4
  Hydrophobic material only Leakage (%): 7.9 ± 1.0%

## CCCCCCCC/C=C\CCCCCCCC(=O)[O-].[Na+] [Oleic acid, Sodium oleate]
[1]; pH 5.0
  Hydrophobic material only Leakage (%): 76.0 ± 2.3%
[1]; pH 7.4
  Hydrophobic material only Leakage (%): 2.2 ± 0.1%

## CCCOC(=O)c1ccc(O)cc1 [Propyl paraoxybenzoate, propyl paraoxybenzoate]
[1]; pH 5.0
  Hydrophobic material only Leakage (%): 7.9 ± 0.1%
[1]; pH 7.4
  Hydrophobic material only Leakage (%): 5.4 ± 0.2%

## CC(C)CCCC(C)CCCC(C)CCCCC(C)CCCC(C)CCCC(C)C (centres unmarked) [Squalane, squalane]
[1]; pH 5.0
  Hydrophobic material only Leakage (%): 9.4 ± 0.5%
[1]; pH 7.4
  Hydrophobic material only Leakage (%): 7.8 ± 0.6%

## CC(C)=CCC/C(C)=C/CC/C(C)=C/CC/C=C(\C)CC/C=C(\C)CCC=C(C)C [Squalene]
[1]; pH 5.0
  Hydrophobic material only Leakage (%): 9.0 ± 0.5%
[1]; pH 7.4
  Hydrophobic material only Leakage (%): 5.4 ± 0.4%

## CCCCCC(=O)OCC(COC(=O)CCCCC)OC(=O)CCCCC [Tricaproin, tricaproin]
[1]; pH 5.0
  Hydrophobic material only Leakage (%): 8.4 ± 0.9%
[1]; pH 7.4
  Hydrophobic material only Leakage (%): 6.9 ± 0.9%

## CCCCCCCC(=O)OCC(COC(=O)CCCCCCC)OC(=O)CCCCCCC [Tricaprylin, tricaprylin]
[1]; pH 5.0
  Hydrophobic material only Leakage (%): 9.0 ± 1.1%
[1]; pH 7.4
  Hydrophobic material only Leakage (%): 6.8 ± 0.9%

## Cyclodextrin
[1]; pH 5.0
  Hydrophobic material only Leakage (%): 9.0 ± 0.7%
[1]; pH 7.4
  Hydrophobic material only Leakage (%): 6.3 ± 0.6%

## fluorescence-labeled peptide alone: Fluorescence-labeled peptide: OVA257-264-Rh
[2]
  localisation of fluorescence-labeled peptide in cells (cytosolic delivery): remained in the endosome

## sorbitan monolaurate [SPAN 20]
[1]; pH 5.0
  Hydrophobic material only Leakage (%): 10.1 ± 0.4%
[1]; pH 7.4
  Hydrophobic material only Leakage (%): 5.7 ± 0.7%

## sorbitan monooleate [SPAN 80]
[1]; pH 5.0
  Hydrophobic material only Leakage (%): 10.0 ± 0.7%
[1]; pH 7.4
  Hydrophobic material only Leakage (%): 5.1 ± 0.5%

## sorbitan palmitic acid ester [SPAN 40]
[1]; pH 5.0
  Hydrophobic material only Leakage (%): 20.8 ± 1.4%
[1]; pH 7.4
  Hydrophobic material only Leakage (%): 14.9 ± 0.8%

## sorbitan stearic acid ester [SPAN 60]
[1]; pH 5.0
  Hydrophobic material only Leakage (%): 17.5 ± 0.4%
[1]; pH 7.4
  Hydrophobic material only Leakage (%): 7.9 ± 0.3%

## sorbitan trioleic acid ester [SPAN 85]
[1]; pH 5.0
  Hydrophobic material only Leakage (%): 17.7 ± 1.2%
[1]; pH 7.4
  Hydrophobic material only Leakage (%): 5.2 ± 0.4%

## sorbitan tristearate [SPAN 65]
[1]; pH 5.0
  Hydrophobic material only Leakage (%): 13.0 ± 0.3%
[1]; pH 7.4
  Hydrophobic material only Leakage (%): 4.2 ± 0.4%
